Values of other authors as cited in patent US6770729B2, “Polymer compositions containing bioactive agents and methods for their use” (priority 2002, dated 2004).

Molecular target: avidin (Gallus gallus, UniProt P02701)
Sequence (P02701 25-152): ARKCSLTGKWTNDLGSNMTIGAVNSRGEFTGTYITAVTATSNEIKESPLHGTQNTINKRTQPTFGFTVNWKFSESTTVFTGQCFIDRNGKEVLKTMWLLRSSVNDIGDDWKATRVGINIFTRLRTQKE

For `O=C(O)CCCC[C@@H]1SC[C@@H]2NC(=O)N[C@@H]21` [biotin], the binding constant (avidin tetramer binds 4 biotin molecules in solution, noncovalent interaction) is given as “about 10^15 M^−1” and the half-life in vivo (avidin-biotin interaction, dissociation of the complex) is given as “about 89 days”.
